From ChEMBL document CHEMBL5465560, “Selectivity Literature for EUbOPEN Chemogenomic Library” (2024)

Columns and labels:
[1] = biological target: T1, Serine/threonine-protein kinase TAO1 (Homo sapiens) (UniProt Q7L7X3); assay: Selectivity interaction (KinomeScan (DiscoverX)) EUB0000655a TAOK1; settings: at 10 µM
T1 sequence (whole entry): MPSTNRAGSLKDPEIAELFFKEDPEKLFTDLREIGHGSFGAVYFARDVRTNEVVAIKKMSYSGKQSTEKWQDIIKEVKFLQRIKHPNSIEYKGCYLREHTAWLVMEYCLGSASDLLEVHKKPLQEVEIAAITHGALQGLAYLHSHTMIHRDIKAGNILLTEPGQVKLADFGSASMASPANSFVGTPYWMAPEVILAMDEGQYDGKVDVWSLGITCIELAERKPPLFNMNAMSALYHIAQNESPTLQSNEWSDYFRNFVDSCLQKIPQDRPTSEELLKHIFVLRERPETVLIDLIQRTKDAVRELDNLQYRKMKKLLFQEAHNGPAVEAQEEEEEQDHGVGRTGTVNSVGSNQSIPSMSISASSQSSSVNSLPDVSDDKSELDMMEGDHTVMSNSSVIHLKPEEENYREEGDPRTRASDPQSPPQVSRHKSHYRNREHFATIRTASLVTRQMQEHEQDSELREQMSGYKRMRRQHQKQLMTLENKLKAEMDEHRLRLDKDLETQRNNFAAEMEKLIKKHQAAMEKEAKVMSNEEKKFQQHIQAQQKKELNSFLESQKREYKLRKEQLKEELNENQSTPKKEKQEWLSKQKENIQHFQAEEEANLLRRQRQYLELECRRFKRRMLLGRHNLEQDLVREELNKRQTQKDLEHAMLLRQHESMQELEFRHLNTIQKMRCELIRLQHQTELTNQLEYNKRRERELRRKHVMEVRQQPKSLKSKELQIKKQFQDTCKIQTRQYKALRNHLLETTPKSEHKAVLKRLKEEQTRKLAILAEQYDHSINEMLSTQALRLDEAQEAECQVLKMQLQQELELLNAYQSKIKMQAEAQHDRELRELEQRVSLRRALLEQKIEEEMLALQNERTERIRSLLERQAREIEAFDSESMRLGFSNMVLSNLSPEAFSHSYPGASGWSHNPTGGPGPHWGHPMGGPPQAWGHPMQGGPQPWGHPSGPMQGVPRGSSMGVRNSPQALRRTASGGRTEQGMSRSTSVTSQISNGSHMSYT

[2] = biological target: T2, Inhibitor of nuclear factor kappa-B kinase subunit beta (Homo sapiens) (UniProt O14920); assay: Selectivity interaction (ActivX KiNativ screen (kinase selectivity in THP-1 cell lysates)) EUB0000639a IKBKB; format: subcellular; settings: lysate, at 5 µM
T2 sequence (whole entry): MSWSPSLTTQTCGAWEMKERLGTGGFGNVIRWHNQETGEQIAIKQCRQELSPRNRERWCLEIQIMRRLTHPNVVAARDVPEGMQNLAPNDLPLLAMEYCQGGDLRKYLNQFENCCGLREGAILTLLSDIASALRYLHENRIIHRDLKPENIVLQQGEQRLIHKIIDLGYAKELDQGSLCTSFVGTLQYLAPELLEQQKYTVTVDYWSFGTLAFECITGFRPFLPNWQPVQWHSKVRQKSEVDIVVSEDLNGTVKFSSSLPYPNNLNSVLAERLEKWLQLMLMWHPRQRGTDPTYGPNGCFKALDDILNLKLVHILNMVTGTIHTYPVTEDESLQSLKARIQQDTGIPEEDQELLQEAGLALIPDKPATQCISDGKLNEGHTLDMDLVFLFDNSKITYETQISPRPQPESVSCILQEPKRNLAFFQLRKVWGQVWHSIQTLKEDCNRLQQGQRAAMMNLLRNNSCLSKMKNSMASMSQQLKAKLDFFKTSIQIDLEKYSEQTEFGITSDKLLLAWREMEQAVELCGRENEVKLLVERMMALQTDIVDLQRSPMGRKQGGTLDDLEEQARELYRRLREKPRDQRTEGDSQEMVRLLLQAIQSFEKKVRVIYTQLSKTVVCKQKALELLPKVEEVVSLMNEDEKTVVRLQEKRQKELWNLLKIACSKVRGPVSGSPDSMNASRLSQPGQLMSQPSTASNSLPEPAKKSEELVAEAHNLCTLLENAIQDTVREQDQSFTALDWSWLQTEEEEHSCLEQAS

[3] = biological target: T3, cGMP-dependent protein kinase 1 (Homo sapiens) (UniProt Q13976); assay: Selectivity interaction (Kinase panel (Invitrogen)) EUB0000639a PRKG1; settings: at 200 nM
T3 sequence (whole entry): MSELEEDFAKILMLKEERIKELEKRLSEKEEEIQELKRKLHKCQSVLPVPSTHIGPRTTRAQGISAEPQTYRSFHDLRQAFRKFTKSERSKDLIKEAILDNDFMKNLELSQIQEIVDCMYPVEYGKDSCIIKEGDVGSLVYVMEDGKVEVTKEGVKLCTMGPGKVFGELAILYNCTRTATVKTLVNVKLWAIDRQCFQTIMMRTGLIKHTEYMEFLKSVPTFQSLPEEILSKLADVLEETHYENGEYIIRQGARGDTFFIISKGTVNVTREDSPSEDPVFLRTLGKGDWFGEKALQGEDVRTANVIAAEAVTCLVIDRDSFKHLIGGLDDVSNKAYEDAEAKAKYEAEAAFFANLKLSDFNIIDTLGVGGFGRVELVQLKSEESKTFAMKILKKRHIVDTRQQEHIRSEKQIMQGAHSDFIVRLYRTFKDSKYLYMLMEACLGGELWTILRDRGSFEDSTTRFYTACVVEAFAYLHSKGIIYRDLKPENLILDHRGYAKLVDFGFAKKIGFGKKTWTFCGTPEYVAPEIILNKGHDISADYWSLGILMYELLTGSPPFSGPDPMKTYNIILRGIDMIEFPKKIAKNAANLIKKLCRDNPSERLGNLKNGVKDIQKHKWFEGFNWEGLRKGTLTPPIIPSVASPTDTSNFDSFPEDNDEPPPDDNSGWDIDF

[4] = biological target: Receptor-interacting serine/threonine-protein kinase 2 (Homo sapiens, UniProt O43353); assay: Selectivity interaction (KinomeScan (DiscoverX)) EUB0001049a RIPK2; settings: at 1 µM
[5] = biological target: Fibroblast growth factor receptor 1 (Homo sapiens, UniProt P11362); assay: Selectivity interaction (KinomeScan (DiscoverX)) EUB0000045b FGFR1
[6] = biological target: Rho-associated protein kinase 2 (Homo sapiens, UniProt O75116); assay: Selectivity interaction (Kinase panel (literature)) EUB0001199aCl ROCK2; settings: at 1 µM
[7] = biological target: Proto-oncogene tyrosine-protein kinase Src (Homo sapiens, UniProt P12931); assay: Selectivity interaction (KinomeScan (DiscoverX)) EUB0001619a SRC; settings: at 1 µM
Sequence of Proto-oncogene tyrosine-protein kinase Src (P12931 2-536 limits assumed): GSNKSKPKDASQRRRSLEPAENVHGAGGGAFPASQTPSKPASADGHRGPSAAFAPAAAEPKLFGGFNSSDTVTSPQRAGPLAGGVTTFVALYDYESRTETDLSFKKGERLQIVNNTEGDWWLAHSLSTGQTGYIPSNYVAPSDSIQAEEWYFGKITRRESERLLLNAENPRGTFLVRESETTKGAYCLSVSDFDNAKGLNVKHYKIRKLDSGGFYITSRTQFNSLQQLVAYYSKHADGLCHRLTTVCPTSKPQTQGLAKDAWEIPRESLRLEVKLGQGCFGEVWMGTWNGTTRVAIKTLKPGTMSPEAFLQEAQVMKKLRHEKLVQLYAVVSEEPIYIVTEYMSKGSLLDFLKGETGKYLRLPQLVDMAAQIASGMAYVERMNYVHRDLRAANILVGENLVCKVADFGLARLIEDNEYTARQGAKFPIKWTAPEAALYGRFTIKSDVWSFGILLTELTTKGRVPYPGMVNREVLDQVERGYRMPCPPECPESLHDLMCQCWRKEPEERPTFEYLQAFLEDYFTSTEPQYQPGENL

Sequence of Fibroblast growth factor receptor 1 (P11362 22-822 limits assumed): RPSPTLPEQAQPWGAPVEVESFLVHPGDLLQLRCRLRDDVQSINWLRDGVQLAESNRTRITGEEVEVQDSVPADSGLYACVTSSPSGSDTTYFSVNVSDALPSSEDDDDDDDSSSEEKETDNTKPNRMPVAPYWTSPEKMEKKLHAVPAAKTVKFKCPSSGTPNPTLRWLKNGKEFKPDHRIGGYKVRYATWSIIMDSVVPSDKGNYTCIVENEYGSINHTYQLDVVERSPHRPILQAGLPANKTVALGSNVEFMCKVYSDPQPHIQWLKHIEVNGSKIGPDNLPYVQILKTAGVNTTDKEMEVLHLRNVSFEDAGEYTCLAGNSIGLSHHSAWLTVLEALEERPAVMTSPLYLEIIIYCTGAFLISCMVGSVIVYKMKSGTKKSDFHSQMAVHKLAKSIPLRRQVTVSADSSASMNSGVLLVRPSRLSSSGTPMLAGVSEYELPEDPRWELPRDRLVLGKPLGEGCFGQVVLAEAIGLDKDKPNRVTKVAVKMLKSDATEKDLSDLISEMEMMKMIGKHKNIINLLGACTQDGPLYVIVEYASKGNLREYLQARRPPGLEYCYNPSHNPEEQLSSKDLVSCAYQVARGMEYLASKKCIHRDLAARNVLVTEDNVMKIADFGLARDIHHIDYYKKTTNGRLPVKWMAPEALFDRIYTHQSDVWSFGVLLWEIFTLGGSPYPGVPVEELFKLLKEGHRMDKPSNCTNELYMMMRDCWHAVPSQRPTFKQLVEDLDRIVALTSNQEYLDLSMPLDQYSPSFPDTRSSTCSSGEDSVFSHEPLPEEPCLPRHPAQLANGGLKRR
Sequence of Rho-associated protein kinase 2 (O75116 whole entry, looked up): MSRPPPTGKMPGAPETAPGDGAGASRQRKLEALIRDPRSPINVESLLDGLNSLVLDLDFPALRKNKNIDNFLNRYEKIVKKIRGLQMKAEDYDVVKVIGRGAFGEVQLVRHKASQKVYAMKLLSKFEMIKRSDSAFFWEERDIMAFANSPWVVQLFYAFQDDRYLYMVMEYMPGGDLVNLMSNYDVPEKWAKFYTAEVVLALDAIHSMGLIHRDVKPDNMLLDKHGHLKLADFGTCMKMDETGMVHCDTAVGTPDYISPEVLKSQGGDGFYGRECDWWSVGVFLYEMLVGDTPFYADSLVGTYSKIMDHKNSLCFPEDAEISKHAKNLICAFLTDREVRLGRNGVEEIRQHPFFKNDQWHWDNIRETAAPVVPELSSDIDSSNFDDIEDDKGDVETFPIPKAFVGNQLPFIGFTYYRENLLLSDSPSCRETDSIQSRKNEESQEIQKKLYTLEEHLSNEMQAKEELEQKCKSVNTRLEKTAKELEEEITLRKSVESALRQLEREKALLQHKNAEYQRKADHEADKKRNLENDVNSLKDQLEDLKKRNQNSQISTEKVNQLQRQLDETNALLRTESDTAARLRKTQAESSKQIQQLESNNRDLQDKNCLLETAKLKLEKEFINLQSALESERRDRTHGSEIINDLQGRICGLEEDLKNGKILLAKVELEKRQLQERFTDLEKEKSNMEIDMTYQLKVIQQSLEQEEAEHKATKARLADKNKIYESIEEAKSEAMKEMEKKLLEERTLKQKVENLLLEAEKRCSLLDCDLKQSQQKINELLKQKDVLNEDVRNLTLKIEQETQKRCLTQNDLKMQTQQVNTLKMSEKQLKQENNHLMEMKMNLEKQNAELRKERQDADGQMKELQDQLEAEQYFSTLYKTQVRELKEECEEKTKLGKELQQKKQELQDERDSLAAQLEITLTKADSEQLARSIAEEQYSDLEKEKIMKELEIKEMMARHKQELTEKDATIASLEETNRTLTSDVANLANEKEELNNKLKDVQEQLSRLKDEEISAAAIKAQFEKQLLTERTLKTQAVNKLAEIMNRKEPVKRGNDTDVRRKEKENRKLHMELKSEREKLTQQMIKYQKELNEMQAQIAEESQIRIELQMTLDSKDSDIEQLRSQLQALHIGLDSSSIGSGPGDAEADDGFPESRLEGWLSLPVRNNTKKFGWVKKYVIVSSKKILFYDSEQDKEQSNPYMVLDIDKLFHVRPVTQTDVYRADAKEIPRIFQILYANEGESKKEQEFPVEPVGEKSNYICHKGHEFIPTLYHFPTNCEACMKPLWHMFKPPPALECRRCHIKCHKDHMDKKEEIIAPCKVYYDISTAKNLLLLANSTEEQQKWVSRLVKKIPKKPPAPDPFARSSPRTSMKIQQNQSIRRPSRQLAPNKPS
Sequence of Receptor-interacting serine/threonine-protein kinase 2 (O43353 whole entry): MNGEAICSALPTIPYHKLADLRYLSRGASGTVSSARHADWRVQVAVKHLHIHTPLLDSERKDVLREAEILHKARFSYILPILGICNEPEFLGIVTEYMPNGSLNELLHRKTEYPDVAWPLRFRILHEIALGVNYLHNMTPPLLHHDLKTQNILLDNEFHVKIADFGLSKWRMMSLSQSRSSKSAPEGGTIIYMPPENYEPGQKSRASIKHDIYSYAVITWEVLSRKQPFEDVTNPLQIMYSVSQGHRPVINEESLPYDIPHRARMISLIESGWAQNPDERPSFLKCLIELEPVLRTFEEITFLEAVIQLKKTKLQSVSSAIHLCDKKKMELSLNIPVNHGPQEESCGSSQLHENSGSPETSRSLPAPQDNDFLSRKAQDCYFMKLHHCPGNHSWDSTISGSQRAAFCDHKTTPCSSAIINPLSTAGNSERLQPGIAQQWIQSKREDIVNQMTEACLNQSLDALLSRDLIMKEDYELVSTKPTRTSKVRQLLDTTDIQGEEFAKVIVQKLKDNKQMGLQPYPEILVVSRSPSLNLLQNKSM

CN(C)CCOc1ccc(-c2nc(-c3ccncc3)c(-c3ccc4c(c3)CC/C4=N\O)[nH]2)cc1
% of control [1]: 81%

CC[C@@H]1[C@H](F)C(=O)N[C@@H]1COc1nccc2cc(C(N)=O)c(OC)cc12 [ZIMLOVISERTIB]
% of inhibition [2]: -9.2%
% of inhibition [3]: 8.62%

COc1cc(Nc2nc(C)cc(-c3cnn4nc(OC)ccc34)n2)cc(C(F)(F)F)c1
% of control [4]: 100%

C=CC(=O)Nc1cc(-n2c(=O)ccc3cnc4ccc(-c5ccc(NS(C)(=O)=O)cc5)cc4c32)ccc1C
% of control ([5]; at 1 µM): 92%
% of control ([5]; at 10 µM): 98%

CN1Cc2nccc(-c3cn(C)nc3-c3ccc(F)cc3)c2C1=O
% of inhibition [6]: 6%

N#Cc1cccc(-c2c[nH]c3ncnc(N4CCOCC4)c23)c1
% of control [7]: 100%
